We go through 18 substances from patent US12551573B2, “Compositions and methods for the targeting of PCSK9” (Scribe Therapeutics Inc., priority 2022, dated 2026).

For this series, the system named is human PCSK9 locus. Description: Secreted PCSK9 by ELISA (normalized to total cell count) in Huh7 cells transfected with mRNA and gRNA. As to conditions: paired with LTRP5-ADD-ZIM3 mRNA; for Secreted PCSK9 / Percent reduction in PCSK9 secretion / Average percent reduction in PCSK9 secretion: Huh7 cells, 6 days post-transfection; for Secreted PCSK9: normalized to total cell count; for Percent reduction in PCSK9 secretion: relative to non-targeting gRNA control; for Average percent reduction in PCSK9 secretion: averaged from the two doses. The class given is cell-based. The procedure: To assess PCSK9 secretion, seeded Huh7 cells were transfected with mRNA encoding a catalytically-active CasX 676, dXR1, or LTRP5-ADD-ZIM3 and a gRNA with scaffold 316 and spacer targeting either the B2M or PCSK9 locus. Media supernatant was harvested at 6, 18, 36, and 87 days post-transfection to assess level of PCSK9 secretion by ELISA. Levels of PCSK9 secretion were normalized to total cell count. As an additional control, PCSK9 secretion was also measured in the media supernatant harvested from wells containing untreated, naïve cells.
The following three human hepatocyte cancer cell lines were used in this experiment: HepG2 cells, Hep3B cells, and Huh7 cells. ˜15,000 cells of each cell line were seeded per well; the next day, seeded cells were transfected with mRNA encoding a catalytically-active CasX 676, dXR1, or LTRP5-ADD-ZIM3 and a gRNA with scaffold 316 and spacer targeting either the B2M or PCSK9 locus (see Table 23 for specific spacers and sequences). Media supernatant was harvested at 4 days post-transfection to assess level of PCSK9 secretion by ELISA, and levels of PCSK9 secretion were normalized to total cell count and illustrated in FIGS. 11A-11C. Culturing of treated Huh7 cells continued, and media supernatant was harvested at 14 and 27 days post-transfection for measuring PCSK9 secretion by ELISA. As an additional experimental control, PCSK9 secretion was also measured in the media supernatant harvested from wells containing untreated, naïve cells.
To assess PCSK9 secretion, seeded Huh7 cells were co-transfected with mRNA encoding for LTRP5-ADD-ZIM3 and a gRNA with scaffold 316 and spacer targeting the PCSK9 locus using Lipofectamine™ 3000. Two doses of total RNA input at a 2:1 mass ratio of mRNA to gRNA were used for screening: 50 ng mRNA: 25 ng gRNA and 25 ng mRNA: 12.5 ng gRNA. Media supernatant was harvested at 6 days post-transfection to assess level of PCSK9 secretion by ELISA (Table 74). Levels of PCSK9 secretion were normalized to total cell count. As an additional control, PCSK9 secretion was also measured in the media supernatant harvested from cells transfected with mRNA encoding for mScarlet.
A general note: An ELISA detects its analyte on a solid surface through an enzyme-linked reagent.

For the substance “GCUCCUGCACAGUCCUCCCC (listed as RNA, chemistry not given here) [spacer 6.161, Exon 1]”, the “Average percent reduction in PCSK9 secretion” value (“Average percent reduction” below) was 44.73%. Moreover, under “25 ng mRNA:12.5 ng gRNA”, the “Secreted PCSK9” value worked out at 53.16 ng/mL and the “Percent reduction in PCSK9 secretion” value came to 25.38%. Further, for the setting “50 ng mRNA:25 ng gRNA”, the “Secreted PCSK9” value is 29.55 ng/mL and the “Percent reduction in PCSK9 secretion” value came out at 64.08%.

In the case of “GAAUUCUAUGGUAGGCACAA (listed as RNA, chemistry not given here) [spacer 6.134, Promoter]”, the “Average percent reduction” value amounted to 33.07%. Further, under “25 ng mRNA:12.5 ng gRNA”, the “Secreted PCSK9” value came to 57.45 ng/mL and the “Percent reduction in PCSK9 secretion” value amounted to 19.37%. In addition, for the setting “50 ng mRNA:25 ng gRNA”, the “Secreted PCSK9” value came out at 43.79 ng/mL and the “Percent reduction in PCSK9 secretion” value amounted to 46.77%.

With “GAGCAGGCCAUUUCACUCGG (listed as RNA, chemistry not given here) [spacer 6.119, Promoter]”, the “Average percent reduction” value amounted to 2.1%. Under “25 ng mRNA:12.5 ng gRNA”, the “Secreted PCSK9” value is 84.54 ng/mL and the “Percent reduction in PCSK9 secretion” value is 18.66%. For the same substance, where the note is “50 ng mRNA:25 ng gRNA”, the “Secreted PCSK9” value is recorded as 70.37 ng/mL and the “Percent reduction in PCSK9 secretion” value was 14.47%.

As for “GAAGUCUCACUGGUCAGCAG (listed as RNA, chemistry not given here) [spacer 6.146, Promoter]”, the “Average percent reduction” value worked out at 60.9%. Further, under “25 ng mRNA:12.5 ng gRNA”, the “Secreted PCSK9” value is 20.34 ng/mL and the “Percent reduction in PCSK9 secretion” value was 71.45%. Moreover, under “50 ng mRNA:25 ng gRNA”, the “Secreted PCSK9” value is given as 40.84 ng/mL and the “Percent reduction in PCSK9 secretion” value is reported as 50.36%.

“UGAACAUGGUGUGUAAAAGG (listed as RNA, chemistry not given here) [spacer 6.131, Promoter]”: the “Average percent reduction” value was 42.11%. In addition, where the note is “25 ng mRNA:12.5 ng gRNA”, the “Secreted PCSK9” value came out at 57.89 ng/mL and the “Percent reduction in PCSK9 secretion” value is recorded as 18.74%. Moreover, where the note is “50 ng mRNA:25 ng gRNA”, the “Secreted PCSK9” value was 28.4 ng/mL and the “Percent reduction in PCSK9 secretion” value is 65.48%.

For the substance “TG-06-347 (guide CUCCUUCACCCACCUGUGCC; listed as RNA, chemistry not given here)”, the “Average percent reduction” value turned out to be 47.49%. For the same substance, where the note is “25 ng mRNA:12.5 ng gRNA”, the “Secreted PCSK9” value is given as 51.83 ng/mL and the “Percent reduction in PCSK9 secretion” value was found to be 27.24%. Also, for the setting “50 ng mRNA:25 ng gRNA”, the “Secreted PCSK9” value is on record as 26.55 ng/mL and the “Percent reduction in PCSK9 secretion” value worked out at 67.73%.

“TG-06-343 (guide CCCCAUGUAAGAGAGGAAGU; listed as RNA, chemistry not given here)”: the “Average percent reduction” value worked out at 8.82%. Also, where the note is “25 ng mRNA:12.5 ng gRNA”, the “Secreted PCSK9” value is on record as 75.55 ng/mL and the “Percent reduction in PCSK9 secretion” value is on record as 6.04%. For the same substance, where the note is “50 ng mRNA:25 ng gRNA”, the “Secreted PCSK9” value was 62.8 ng/mL and the “Percent reduction in PCSK9 secretion” value is on record as 23.67%.

For the substance “TG-06-344 (guide CAGUUUCUGCCUCGCCGCGG; listed as RNA, chemistry not given here)”, the “Average percent reduction” value amounted to 3.64%. For the setting “25 ng mRNA:12.5 ng gRNA”, the “Secreted PCSK9” value turned out to be 76.43 ng/mL and the “Percent reduction in PCSK9 secretion” value is recorded as 7.28%. In addition, for the setting “50 ng mRNA:25 ng gRNA”, the “Secreted PCSK9” value is listed as 82.29 ng/mL and the “Percent reduction in PCSK9 secretion” value is 0.01%.

As to “AGAAAGAGCAAGCCUCAUGU (listed as RNA, chemistry not given here) [spacer 6.125, Promoter]”, the “Average percent reduction” value worked out at 52.49%. Moreover, for the setting “25 ng mRNA:12.5 ng gRNA”, the “Secreted PCSK9” value was found to be 46.11 ng/mL and the “Percent reduction in PCSK9 secretion” value stood at 35.28%. Besides, for the setting “50 ng mRNA:25 ng gRNA”, the “Secreted PCSK9” value is on record as 24.93 ng/mL and the “Percent reduction in PCSK9 secretion” value is 69.7%.

Turning to “CCUUUGUUUCUUCCCAGUAU (listed as RNA, chemistry not given here) [spacer 6.122, Promoter]”, the “Average percent reduction” value is reported as 8.63%. Besides, under “25 ng mRNA:12.5 ng gRNA”, the “Secreted PCSK9” value worked out at 86.06 ng/mL and the “Percent reduction in PCSK9 secretion” value is given as 20.79%. Besides, under “50 ng mRNA:25 ng gRNA”, the “Secreted PCSK9” value is given as 79.36 ng/mL and the “Percent reduction in PCSK9 secretion” value came to 3.54%.

Take “TG-06-250 (guide GAUUUGGUUUGGAAAACAUG; listed as RNA, chemistry not given here)”: the “Average percent reduction” value is given as 9.26%. Where the note is “25 ng mRNA:12.5 ng gRNA”, the “Secreted PCSK9” value is 80.42 ng/mL and the “Percent reduction in PCSK9 secretion” value is recorded as 12.87%. For the setting “50 ng mRNA:25 ng gRNA”, the “Secreted PCSK9” value is listed as 86.92 ng/mL and the “Percent reduction in PCSK9 secretion” value was determined as 5.64%.

On to “CAGUAUCGACAGCCCUUCCA (listed as RNA, chemistry not given here) [spacer 6.124, Promoter]”, for which the “Average percent reduction” value is given as 68.48%. Where the note is “25 ng mRNA:12.5 ng gRNA”, the “Secreted PCSK9” value stood at 30.59 ng/mL and the “Percent reduction in PCSK9 secretion” value is listed as 57.06%. Moreover, for the setting “50 ng mRNA:25 ng gRNA”, the “Secreted PCSK9” value is listed as 16.54 ng/mL and the “Percent reduction in PCSK9 secretion” value was found to be 79.9%.

For “GCCGGGCCCACCUUUUCAGU (listed as RNA, chemistry not given here) [spacer 6.148, Promoter]”, the “Average percent reduction” value was 25.15%. Besides, where the note is “25 ng mRNA:12.5 ng gRNA”, the “Secreted PCSK9” value is recorded as 44.77 ng/mL and the “Percent reduction in PCSK9 secretion” value is listed as 37.16%. Further, under “50 ng mRNA:25 ng gRNA”, the “Secreted PCSK9” value was 71.46 ng/mL and the “Percent reduction in PCSK9 secretion” value was 13.15%.

With “AGGGAUUUAUACUACAAAGA (listed as RNA, chemistry not given here) [spacer 6.138, Promoter]”, the “Average percent reduction” value is 66.79%. Further, for the setting “25 ng mRNA:12.5 ng gRNA”, the “Secreted PCSK9” value is listed as 30.87 ng/mL and the “Percent reduction in PCSK9 secretion” value was 56.67%. Moreover, under “50 ng mRNA:25 ng gRNA”, the “Secreted PCSK9” value came to 18.99 ng/mL and the “Percent reduction in PCSK9 secretion” value was found to be 76.92%. In addition, the “repression of PCSK9 secretion by spacer” value (Huh7, scaffold 316, days 4, 14, 27) was “most effective repression of PCSK9 secretion”.

In the case of “GCUGAAACAGAUGGAAUACU (listed as RNA, chemistry not given here) [spacer 6.172, Intron 1]”, the “Average percent reduction” value is reported as 31.37%. In addition, where the note is “25 ng mRNA:12.5 ng gRNA”, the “Secreted PCSK9” value is on record as 59.31 ng/mL and the “Percent reduction in PCSK9 secretion” value was determined as 16.75%. Besides, where the note is “50 ng mRNA:25 ng gRNA”, the “Secreted PCSK9” value stood at 44.44 ng/mL and the “Percent reduction in PCSK9 secretion” value is recorded as 45.99%.

Consider “TG-06-348 (guide AGGCAUUCACUCCUUCACCC; listed as RNA, chemistry not given here)”, for which the “Average percent reduction” value amounted to 60.99%. For the same substance, under “25 ng mRNA:12.5 ng gRNA”, the “Secreted PCSK9” value is recorded as 35.55 ng/mL and the “Percent reduction in PCSK9 secretion” value stood at 50.1%. Moreover, where the note is “50 ng mRNA:25 ng gRNA”, the “Secreted PCSK9” value is 23.14 ng/mL and the “Percent reduction in PCSK9 secretion” value is recorded as 71.88%.

For the substance “GAGUGAAAUGGCCUGCUCUG (listed as RNA, chemistry not given here) [spacer 6.118, Promoter]”, the “Average percent reduction” value is recorded as 39.99%. Under “25 ng mRNA:12.5 ng gRNA”, the “Secreted PCSK9” value is 54.78 ng/mL and the “Percent reduction in PCSK9 secretion” value was found to be 23.11%. Further, under “50 ng mRNA:25 ng gRNA”, the “Secreted PCSK9” value is 35.5 ng/mL and the “Percent reduction in PCSK9 secretion” value was 56.86%.

For “TG-06-352: PCSK9-targeting TTC spacer positioned beyond the 1100 bp TSS-proximal window (Table 17) (guide UCCCUCACCAAUUACCCCUC; listed as RNA, chemistry not given here)”, the “secreted PCSK9: sustained repression through day 36” value (Huh7, scaffold 316, compared to spacer 6.1 paired with CasX 676) is on record as “effective repression through day 36”.
